Laboratory results published in patent US8263108B2, “Zero-order prolonged release coaxial implants” (Durect Corporation, priority 2001, dated 2012).

Experiments:
[1] = In vitro dissolution of cromolyn sodium coaxial implants; format: physicochemical; details: 50 wt % cromolyn/PCL core, PBS pH 7.4, 37° C.
Procedure: Coaxial rods were produced by operating the two Randcastle extruders simultaneously. The core material (cromolyn/PCL) was fed through the center orifice of the die on the first extruder to form the implant core. […] Individual implants with a diameter of approximately 2 mm were cut to a length of 2 cm. The exposed ends were sealed with the same polymer as the membrane. Cromolyn release was determined in vitro using a simple dissolution test. Individual implants were placed in 4-oz amber jars with 40 mL of buffer (phosphate buffered saline, pH 7.4, with 0.05% sodium azide) and incubated at 37° C. Periodically, aliquots of buffer were removed and replaced with fresh buffer. The cromolyn concentration in each sample was determined by HPLC.

[2] = Release of interferon from implants incubated in phosphate buffered saline; format: physicochemical; details: 30 vol % NaCl/PCL tubing filled with 20 mg α-interferon suspension in SAIB, ends sealed
Procedure: Using nitrogen gas as the core feed, a mixture comprising 30 vol % NaCl in PCL was extruded as described above through the outer ring of a coaxial die to form tubing having an overall diameter of about 3 mm. Implants containing α-interferon were prepared from the tubing by filling a short length of tubing with a suspension containing 20 mg of α-interferon in sucrose acetate isobutyrate (SAIB) and sealing the ends of the tube.
The implants, when incubated in phosphate buffered saline, released interferon for several days.

| Molecule | effect of membrane thickness on release of cromolyn ([1]; 30 vol % cromolyn/PCL membrane (pore-forming agent), FIG. 8) | release from sealed versus unsealed implant ([1]; 30 vol % lactose/PCL membrane, FIG. 9) | duration of interferon release [2] |
| --- | --- | --- | --- |
| O=C(O)c1cc(=O)c2c(OCC(O)COc3cccc4oc(C(=O)O)cc(=O)c34)cccc2o1 [cromolyn, cromolyn sodium] | A thicker polymer membrane causes slower release | the unsealed implant releases faster than the sealed |  |
| α-interferon |  |  | several days |
